Entries after “also recorded” stand apart in the source; their conditions may differ. Like-named read-outs stand apart in the source and are kept apart here.
Columns and labels:
[1] = tested on: AKT S473 phosphorylation (mTORC2); assay: AlphaLISA/MSD analysis of AKT phosphorylation in MDA-MB-468 cells; format: cell-based; settings: MDA-MB-468 cells, read-out: pAKT IC50
Experimental: (§1) Cell culture and reagents. Cells were obtained from ATCC, grown in appropriate medium supplemented with 10% fetal bovine serum and 1% penicillin/streptomycin and maintained at 37 °C in a humidified incubator at 5% CO 2.
(§2) AlphaLISA and MesoScale Discovery (MSD) analysis of 4EBP1, S6K and AKT phosphorylation. mTOR substrate phosphorylation in MDA-MB-468 cells was assayed using AlphaLISA SureFire Ultra kits for p4EBP1 Thr37/46, p-P70S6K Thr389 and p-AKT1/2/3 Ser473 (PerkinElmer), and MSD Multi-Array Assay Systems for Phospho-4EBP1 (Thr37/46) and Phospho-AKT (Ser473) (MSD). Cells were seeded at 25,000 cells per well and exposed the next day to serial three-fold dilutions of compounds in complete medium with 0.1% dimethylsulfoxide (DMSO). After indicated incubation times, cells were lysed and AlphaLISA or MSD performed according to the manufacturers’ protocols. Samples were read using an EnVision Multilabel Plate Reader (PerkinElmer) using standard AlphaLISA settings or using an MSD plate reader. Data were plotted as a function of logM [compound] with a sigmoidal concentration response (variable slope) model fitted to the data to estimate the inhibitor half-maximum effective concentration (EC 50) in Prism 7 (GraphPad). Alternatively, results were analyzed as percentage of control in which 0% was set as signal from 1 μM Torin1 and 100% was set as the mean of DMSO wells on each plate, and inhibitor EC 50 was estimated as described

[2] = tested on: Candida albicans; settings: 10 strains of yeast Candida albicans; cited from earlier work
[3] = tested on: p-P70S6K Thr389; assay: AlphaLISA/MSD analysis of S6K phosphorylation in MDA-MB-468 cells; format: cell-based; settings: MDA-MB-468 cells; for IC50: read-out: pS6K IC50
Experimental: as §1, §2

[4] = tested on: 4EBP1 T37/T46 phosphorylation (mTORC1); assay: AlphaLISA/MSD analysis of 4EBP1 phosphorylation in MDA-MB-468 cells; format: cell-based; settings: for IC50: MDA-MB-468 cells, read-out: p4EBP1 IC50
Experimental: as §1, §2

[5] = tested on: tumor p4EBP1; assay: Tumor PD after a single dose in the MCF-7 CDX model; format: in vivo, mice; settings: MCF-7 CDX
[6] = molecular target: T1, FKBP12 (Homo sapiens, UniProt P62942); assay: FKBP12 binding affinity, fluorescent probe displacement assay
T1 construct: Proteros biostructures GmbH (ran the assay)
T1 sequence (P62942 whole entry): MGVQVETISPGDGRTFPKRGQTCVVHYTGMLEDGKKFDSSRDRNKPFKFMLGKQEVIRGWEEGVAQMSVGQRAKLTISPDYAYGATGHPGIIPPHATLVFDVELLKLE
Experimental: Thermo Fisher Scientific catalog no. A15112) in 50 mM HEPES pH 7.5, 0.01% polysorbate 20, 1 mM EGTA and 10 mM MnCl 2. Compounds were diluted in DMSO, and assay was initiated by mixing 160 nl of compound with 16 μL of assay mixture, resulting in a final DMSO
concentration of 1%. Reactions were mixed for 30 s on an orbital shaker and incubated for 1 h at

[7] = molecular target: T2, FKBP12-FRB (Homo sapiens, UniProt P42345+P62942); assay: TR-FRET ternary complex assay; format: binding; settings: at the assay detection limit
T2 construct: human mTOR (residues 1360-2549); purchased Thermo Fisher Scientific (ran the assay)
T2 sequence (P62942 whole entry, the tested form may be a part): as the sequence (P62942 whole entry) above
T2 sequence (P42345 1360-2549 limits assumed): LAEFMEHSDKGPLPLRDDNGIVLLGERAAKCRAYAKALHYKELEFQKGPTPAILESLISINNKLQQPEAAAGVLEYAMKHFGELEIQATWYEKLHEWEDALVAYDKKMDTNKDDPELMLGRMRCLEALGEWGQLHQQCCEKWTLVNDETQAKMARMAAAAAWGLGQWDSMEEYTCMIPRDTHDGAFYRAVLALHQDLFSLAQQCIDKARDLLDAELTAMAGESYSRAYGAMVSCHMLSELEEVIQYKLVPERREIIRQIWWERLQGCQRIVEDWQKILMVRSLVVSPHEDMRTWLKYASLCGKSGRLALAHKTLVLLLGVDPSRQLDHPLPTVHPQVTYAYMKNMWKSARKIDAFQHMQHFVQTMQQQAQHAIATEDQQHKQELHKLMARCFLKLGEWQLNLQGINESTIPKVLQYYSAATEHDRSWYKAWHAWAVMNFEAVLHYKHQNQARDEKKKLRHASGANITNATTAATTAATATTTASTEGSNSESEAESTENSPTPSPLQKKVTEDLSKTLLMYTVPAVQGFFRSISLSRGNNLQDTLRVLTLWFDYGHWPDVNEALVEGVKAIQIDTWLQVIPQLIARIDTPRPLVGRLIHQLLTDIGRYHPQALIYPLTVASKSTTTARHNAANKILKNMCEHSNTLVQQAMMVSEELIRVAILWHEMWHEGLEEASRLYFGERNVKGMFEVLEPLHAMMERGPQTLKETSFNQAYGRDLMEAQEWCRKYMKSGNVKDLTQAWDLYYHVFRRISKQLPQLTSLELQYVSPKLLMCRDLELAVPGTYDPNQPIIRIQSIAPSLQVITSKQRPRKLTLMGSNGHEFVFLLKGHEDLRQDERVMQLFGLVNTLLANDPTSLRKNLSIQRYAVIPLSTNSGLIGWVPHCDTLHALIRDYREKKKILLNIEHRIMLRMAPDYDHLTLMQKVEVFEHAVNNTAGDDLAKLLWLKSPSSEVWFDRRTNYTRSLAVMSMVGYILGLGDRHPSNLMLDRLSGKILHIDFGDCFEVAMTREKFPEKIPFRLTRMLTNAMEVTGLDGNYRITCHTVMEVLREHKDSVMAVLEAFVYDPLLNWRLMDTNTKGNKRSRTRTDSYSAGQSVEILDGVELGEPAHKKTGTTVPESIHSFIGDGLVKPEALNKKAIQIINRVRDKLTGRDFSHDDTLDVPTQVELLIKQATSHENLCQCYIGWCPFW
Experimental: Proteros biostructures GmbH, using a fluorescent probe displacement assay. […]
same conditions, with 6 nM fluorescent probe present. 50 nL compound in DMSO was added to […]
11 different concentrations of compound with a 3-fold dilution factor were tested. After a 6 h incubation at room temperature acceptor fluorescence was read on a plate reader. […]
displacement) were calculated using standard fitting algorithms. The reporter probe is used at a concentration reflecting the tenfold concentration of its own Kd (probe) value. Thus, according to the Cheng Prusoff equation, the Kd value can be calculated with Kd = IC 50 / (1 + (([10 x Kd probe]) / [Kd probe]) = IC 50 / 11.
TR–FRET ternary complex assay. Assay was performed by Thermo Fisher Scientific, using a modification of a previously described protocol. 1 A homogeneous assay mixture was prepared […]
Thermo Fisher Scientific catalog no. A15112) in 50 mM HEPES pH 7.5, 0.01% polysorbate 20, 1 mM EGTA and 10 mM MnCl 2. […]
Nanosyn Lipid Kinase screen. Biochemical inhibition of lipid and related protein kinases was determined by Nanosyn (Santa Clara, CA). […]
was determined by detection of fluorescent substrates using a microfluidic electrophoresis mobility shift assay with a LabChip3000 instrument (Caliper/PerkinElmer). […]

[8] = tested on: NCI-H2122 NSCLC CDX; assay: NCI-H2122 NSCLC CDX model; format: in vivo; settings: RMC-6272 10 mg/kg ip once weekly; sotorasib 100 mg/kg po qd; single agents or combination
Experimental: groups when mean tumor volume reached 400–600 mm 3. Tumor and plasma samples were collected for PK and PD analysis at indicated time points after a single dose of indicated […]
doses. Everolimus was formulated in v/v/v/, 30/5/65 Propylene glycol/Tween 80/H 2O.
NCI-H2122 xenograft studies. Female Balb/c nude mice (Beijing V.R Biotechnology Co. […]
per inoculation. When mean tumor volume reached between 150–200 mm 3, mice were […]
Transcutol/Solutol HS 15/H 2O. Sotorasib (AMG 510) was administered by oral gavage at 100 mg/kg daily and formulated in 2% (w/v) HPMC E-50, 0.5% Tween 80 in 50 mM sodium citrate […]
In vivo pharmacodynamics. Snap frozen tumors collected were homogenized with MSD complete lysis buffer (as prepared according to Meso Scale Discovery kit protocol) using PreCellys Bead Shaker (Bertin Instruments) according to manufacturer's protocol. Phospho-4E-BP1(Thr37/46) Whole Cell Lysate Kit (Meso Scale Discovery) was used to quantify phosphorylation of 4E-BP1 in the tumors according to manufacturer's protocol.
Expression and purification of FKBP12, FRB domain, and RHEB-GTPγS. DNA pET28

| Compound | IC50 ([1]; Homo sapiens) | IC50 ([3]; Homo sapiens) | IC50 ([4]; Homo sapiens) | also measured |
| --- | --- | --- | --- | --- |
| CO[C@H]1C[C@@H]2CC[C@@H](C)[C@@](O)(O2)C(=O)C(=O)N2CCCC[C@H]2C(=O)O[C@H]([C@H](C)C[C@@H]2CC[C@@H](O)[C@H](OC)C2)CC(=O)[C@H](C)/C=C(\C)[C@@H](O)[C@@H](OC)C(=O)[C@H](C)C[C@H](C)/C=C/C=C/C=C/1C [compound 1, Rapamycin, reference compound] | > 1000 nM | – | – | minimum inhibitory concentration [2]: 0.02 to 0.2 µg/mL |
| CO[C@H]1C[C@@H]2CC[C@@H](C)[C@@](O)(O2)C(=O)C(=O)N2CCCC[C@H]2C(=O)O[C@H]([C@H](C)C[C@@H]2CC[C@@H](OCCO)[C@H](OC)C2)CC(=O)[C@H](C)/C=C(\C)[C@@H](O)[C@@H](OC)C(=O)[C@H](C)C[C@H](C)/C=C/C=C/C=C/1C [compound 4, everolimus, reference compound] | > 1000 nM | 0.07 nM | > 1000 nM | effect on tumor p4EBP1 levels ([5]; single dose (38, 40 ip; everolimus 5 mg/kg oral)): minimal effect |
| CC(C)n1nc(-c2ccc3oc(N)nc3c2)c2c(N)ncnc21 [compound 5, sapanisertib, reference compound] | 1.8 nM | – | – | inhibition of tumor p4EBP1 ([5]; 4 h after intraperitoneal dosing at 1 mg/kg): > 80% |
| CO[C@H]1C[C@@H]2CC[C@@H](C)[C@@](O)(O2)C(=O)C(=O)N2CCCC[C@H]2C(=O)O[C@H]([C@H](C)C[C@@H]2CC[C@@H](O)[C@H](OC)C2)C[C@@H](O)[C@H](C)/C=C(\C)[C@@H](O)[C@@H](OC)C(=O)[C@H](C)C[C@H](C)/C=C/C=C/C=C/1C [compound 11, C32-hydroxy rapamycin] | – | – | – | Kd [6]: 13.3 nM |
| CO[C@H]1C[C@@H]2CC[C@@H](C)[C@@](O)(O2)C(=O)C(=O)N2CCCC[C@H]2C(=O)O[C@H]([C@H](C)C[C@@H]2CC[C@@H](O)[C@H](OC)C2)C[C@@H](OC)[C@H](C)/C=C(\C)[C@@H](O)[C@@H](OC)C(=O)[C@H](C)C[C@H](C)/C=C/C=C/C=C/1C [compound 12, C32-methoxy rapamycin] | > 1000 nM | 0.37 nM | > 1000 nM | decrease in potency (pS6K) relative to rapamycin 1 [3]: 6 fold; Kd [6]: 701 nM; decrease in affinity for FKBP12 relative to rapamycin 1 [6]: ~1600 fold; EC50 [7]: < 10 nM |
| CO[C@H]1C[C@@H]2CC[C@@H](C)[C@@](O)(O2)C(=O)C(=O)N2CCCC[C@H]2C(=O)O[C@H]([C@H](C)C[C@@H]2CC[C@@H](OC(=O)NCCOCCOCCOCCOCCOCCOCCOCCOCCC(=O)NCCS(=O)(=O)c3ccc(C(=O)N4CCOc5ccc(-c6ccc(N)nc6)cc5C4)c(C)c3F)[C@H](OC)C2)CC(=O)[C@H](C)/C=C(\C)[C@@H](O)[C@@H](OC)C(=O)[C@H](C)C[C@H](C)/C=C/C=C/C=C/1C [compound 31] | 2.9 nM | 0.23 nM | 0.7 nM | – |
| CO[C@@H](C[C@@H]1CC[C@@H](C)[C@](O)(C(=O)C(=O)N2CCCC[C@H]2C(=O)O)O1)/C(C)=C/C=C/C=C/[C@@H](C)C[C@@H](C)C(=O)[C@H](OC)[C@H](O)/C(C)=C/[C@@H](C)C(=O)/C=C\[C@H](C)C[C@@H]1CC[C@@H](OCCCCc2cn(CCOCCOCCOCCOCCOCCOCCOCCOCCC(=O)NCCCCn3nc(-c4ccc5oc(N)nc5c4)c4c(N)ncnc43)nn2)[C@H](OC)C1 [compound 32] | 450 nM | 59 nM | 180 nM | – |
| CO[C@H]1C[C@@H]2CC[C@@H](C)[C@@](O)(O2)C(=O)C(=O)N2CCCC[C@H]2C(=O)O/C([C@H](C)C[C@@H]2CC[C@@H](OC(=O)NCCOCCOCCOCCOCCOCCOCCOCCOCCC(=O)N3CCc4cc(Cn5nc(-c6ccc7oc(N)nc7c6)c6c(N)ncnc65)ccc4C3)[C@H](OC)C2)=C/C(=O)[C@H](C)/C=C(\C)[C@@H](O)[C@@H](OC)C(=O)[C@H](C)C[C@H](C)/C=C/C=C/C=C/1C [compound 33] | > 1000 nM | 80 nM | 320 nM | – |
| C=CC(=O)N1CCN(c2nc(=O)n(-c3c(C)ccnc3C(C)C)c3nc(-c4c(O)cccc4F)c(F)cc23)[C@@H](C)C1 [sotorasib] | – | – | – | antitumor activity (tumor regressions) in NCI-H2122 CDX model [8]: Neither; also recorded: only modest inhibition of tumor growth |
| BGT226 [compound 7, reference compound] | – | – | – | IC50 [3]: 0.27 nM; IC50 [4]: 4.4 nM; selectivity (mTORC1/mTORC2 ratio) ([4]; pAKT IC50 versus p4EBP1 IC50, MDA-MB-468 cells): 0.3; IC50 [1]: 1.4 nM |

From PMC9841523 (Journal of Medicinal Chemistry, 2022)
